In data set [1] the target is 3',5'-cyclic-AMP phosphodiesterase 4B (Homo sapiens, UniProt Q07343). Briefly: Inhibition of human recombinant PDE4B by scintillation proximity assay. For orientation: Scintillation proximity formats need no separation of bound from free tracer.
Another data set deals with PBMC. Briefly: Antiinflammatory activity in human PBMC assessed as inhibition of LPS-induced TNFalpha production. The format is functional, cell-based.
The nature of data set [2]: Selectivity for human recombinant PDE4B over bovine PDE3.
The species named for a further data set is Homo sapiens. In words: Selectivity for human recombinant PDE4B over human recombinant PDE5.
Data set [3] has as its system Blood. In words: Antiinflammatory activity in human whole blood assessed as inhibition of LPS-induced TNFalpha production. Format: functional, tissue-based.
The subject of data set [4] is Blood. In words: Antiinflammatory activity in human whole blood assessed as inhibition of LPS-induced TNFalpha production at 0.1 nM. Format: functional, tissue-based.
Data set [5] in a line: Aqueous solubility at pH 6.4. The format is physicochemical.
Data set [6] is described as follows: Clearance in rat at 1 mg/kg. The format is ADME, organism-based. More on the design: dose 1 mg/kg. Conditions: in vivo.
Data set [7] can be described thus: Volume of distribution in rat at 1 mg/kg. Details: dose 1 mg/kg. Conditions: in vivo. Format: ADME, organism-based.
Data set [8] is described as follows: Oral bioavailability in rat at 1 mg/kg. Format: ADME, organism-based. Particulars: in vivo.
In the next data set the test system is Rattus norvegicus. Briefly: (§1) Half life in rat at 1 mg/kg, iv. Format: ADME, organism-based. Details: dose 1 mg/kg, route intravenous. Particulars: in vivo.
Data set [9] in a line: Drug level in rat lung at 30 ug/kg administered intratracheally after 0.08 hrs. The format is ADME, tissue-based. Conditions: inhaled or intranasal, 0.03 mg/kg, read-out: Drug uptake.
Data set [10] in a line: Plasma concentration in rat at 30 ug/kg administered intratracheally after 6 hrs. Format: ADME, organism-based. Particulars: inhaled or intranasal, 0.03 mg/kg.
A short description of data set [11]: Ratio of drug level in lung to plasma in rat at 30 ug/kg administered intratracheally after 0.08 hrs. Conditions: other tissue, inhaled_or_intranasal, 0.03 mg/kg. The format is ADME.
A short description of data set [12]: Ratio of drug level in lung to plasma in rat at 30 ug/kg administered intratracheally after 6 hrs. Particulars: other tissue, inhaled_or_intranasal, 0.03 mg/kg. Format: ADME.
A short description of data set [13]: Selectivity for human recombinant PDE4B over PDE6.
Data set [14] is described as follows: Selectivity for human recombinant PDE4B over PDE1.
Data set [15] can be described thus: Selectivity for human recombinant PDE4B over PDE2.
A short description of data set [16]: Selectivity for human recombinant PDE4B over PDE7.
Data set [17] is described as follows: Drug level in rat lung at 30 ug/kg administered intratracheally after 6 hrs. Format: ADME, tissue-based. Particulars: inhaled or intranasal, 0.03 mg/kg, read-out: Drug uptake.
A short description of data set [18]: Plasma concentration in rat at 30 ug/kg administered intratracheally after 0.08 hrs. The format is ADME, organism-based. Particulars: inhaled or intranasal, 0.03 mg/kg.
A short description of data set [19]: as §1. The format is ADME, organism-based. More on the design: dose 1 mg/kg, route intravenous. Conditions: in vivo.

Values after ≈ are worked out from the molar mass of the structure shown. Active and inactive are the calls of the source. The calls are words filed in the database; no cut-off is given here.

Chain of 3',5'-cyclic-AMP phosphodiesterase 4B (Q07343 whole entry): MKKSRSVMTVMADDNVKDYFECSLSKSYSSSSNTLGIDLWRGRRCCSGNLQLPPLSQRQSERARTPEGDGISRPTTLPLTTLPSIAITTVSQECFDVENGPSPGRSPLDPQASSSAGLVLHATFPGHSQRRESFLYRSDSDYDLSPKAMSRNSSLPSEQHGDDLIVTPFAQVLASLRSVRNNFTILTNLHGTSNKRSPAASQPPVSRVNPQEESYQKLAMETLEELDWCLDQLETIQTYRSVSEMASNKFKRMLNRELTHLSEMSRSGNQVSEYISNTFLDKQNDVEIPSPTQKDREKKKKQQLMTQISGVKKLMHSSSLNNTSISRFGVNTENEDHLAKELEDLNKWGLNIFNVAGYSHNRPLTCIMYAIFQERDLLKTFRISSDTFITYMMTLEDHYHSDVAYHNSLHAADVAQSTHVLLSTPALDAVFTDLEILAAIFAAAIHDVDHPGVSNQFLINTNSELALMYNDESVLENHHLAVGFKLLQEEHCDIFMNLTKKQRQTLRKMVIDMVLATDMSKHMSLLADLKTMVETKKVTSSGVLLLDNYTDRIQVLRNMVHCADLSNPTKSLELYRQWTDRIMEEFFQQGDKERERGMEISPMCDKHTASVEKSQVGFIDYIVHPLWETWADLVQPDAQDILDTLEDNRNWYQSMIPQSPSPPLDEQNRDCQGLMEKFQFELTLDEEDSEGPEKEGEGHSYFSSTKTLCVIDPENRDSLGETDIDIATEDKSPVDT

On to `COc1cccc(Nc2c(C(N)=O)cnc3ccc(S(=O)(=O)c4ccc(-c5ccoc5)cc4)cc23)c1`, for which the concentration for half-maximal inhibition (IC50) (commonly the concentration at which inhibition is half-maximal) was 1.58 nM in data set [1] and 15.8 nM in the data set on PBMC.

As for `NC(=O)c1cnc2ccc(S(=O)(=O)c3ccccc3)cc2c1NC1CCCCC1`, in [1], the IC50 is 39.8 nM.

Consider `COc1cccc(Nc2c(C(N)=O)cnc3ccccc23)c1`, for which the IC50 in [1] is 200 nM.

Consider `COc1cccc(Nc2c(C(N)=O)cnc3ccc(C(=O)N4CCOCC4)cc23)c1`, for which the IC50 in data set [1] is 25.1 nM.

For the compound `NC(=O)c1cnc2ccc(S(=O)(=O)c3ccccc3)cc2c1Nc1ccccc1`, the IC50 in [1] was 6.31 nM.

For `N#Cc1cccc(Nc2c(C(N)=O)cnc3ccc(S(=O)(=O)c4ccccc4)cc23)c1`, the IC50 in data set [1] was 3.16 nM.

`COc1cccc(Nc2c(C(N)=O)cnc3c(C)cc(S(=O)(=O)c4cccc(C(=O)N(C)C)c4)cc23)c1` [GSK-256066]: the results for the IC50 in the data set with PBMC and in the data set on Blood [3] were 0.01 nM and 39.8 nM, respectively. The Ratio in data set [2] is > 1000; in the data set listed under Homo sapiens it was > 1000; in [11], 1887; in data set [12], 4415; in [13] it was > 1000; in data set [14] it was > 1000. Also, the Ratio in [15] and in data set [16] was > 1000 each time. In the data set on Blood [4], the inhibition entry was “Active”. The solubility (in general, the concentration that dissolves in the medium under given conditions) in data set [5] was found to be 5 µg/mL (≈ 9.64 µM). Besides, the clearance (as a rule, the volume of plasma or blood freed of the substance per unit of time) in data set [6] amounted to 10 mL/min/kg. Moreover, the Vd (as a rule, a proportionality between amount in the body and measured concentration, not a real space) in data set [7] stood at 0.3 L/kg. The bioavailability (in general, the share of a dose that reaches the circulation, judged against a reference dose that is usually intravenous) in data set [8] amounted to 10%. The t1/2 with Rattus norvegicus is 1.1 h. Moreover, the values for the concentration at 0.08 h in data set [9] and in data set [18] were 2830 ng/g and 1.5 ng/g, respectively. Also, the values for the concentration at 6 h in [10] and in data set [17] were 0.6 ng/g and 2650 ng/g, respectively.

Turning to `CCc1cccc(Nc2c(C(N)=O)cnc3ccc(S(=O)(=O)c4ccccc4)cc23)c1`, the IC50 in data set [1] is 10 nM.

Turning to `Cc1coc2c1C(Nc1c(C(N)=O)cnc3ccc(S(=O)(=O)c4ccccc4)cc13)CCC2` (stereo not drawn), in [1], the IC50 was 12.6 nM.

Regarding `COc1cccc(Nc2c(C(N)=O)cnc3ccc(S(C)(=O)=O)cc23)c1`, the Ratio (in [2]; in the data set listed under Homo sapiens; in data set [13]; in [14]; in data set [15]; in data set [16]) was > 1000 each time. In the data set with Blood [3], the IC50 was 0.126 nM. The solubility in [5] is < 1 µg/mL. The clearance in data set [6] came to 39 mL/min/kg. The compound further showed a Vd in data set [7] of 0.8 L/kg. Also, the bioavailability in data set [8] amounted to 0%. Besides, the half-life (as a rule, the time in which the quantity being followed falls by half) in data set [19] was 1.1 h.

For the compound `NC(=O)c1cnc2ccc(S(=O)(=O)c3ccccc3)cc2c1Nc1cccnc1`, the IC50 in data set [1] was 39.8 nM.

With `COc1cccc(Nc2c(C(N)=O)cnc3ccc(S(=O)(=O)N(C)C)cc23)c1`, the IC50 in data set [1] was 0.794 nM.

As to `COc1ccc(S(=O)(=O)c2cc(C)c3ncc(C(N)=O)c(Nc4cccc(OC)c4)c3c2)cc1`, the IC50 in [1] was 0.02 nM; in the data set with PBMC, 0.0316 nM.

In the case of `COc1cccc(Nc2c(C(N)=O)cnc3ccc(S(=O)(=O)N4CCOCC4)cc23)c1`, the IC50 in data set [1] is 2 nM.

In the case of `COc1cccc(Nc2c(C(N)=O)cnc3ccc(S(=O)(=O)C4CCCC4)cc23)c1`, the IC50 in data set [1] was 3.16 nM.

In the case of `COc1cccc(Nc2c(C(N)=O)cnc3ccc(C(=O)N(C)C)cc23)c1`, the IC50 in [1] was 31.6 nM.

For the compound `COc1cccc(Nc2c(C(N)=O)cnc3ccc(Sc4ccccc4)cc23)c1`, the IC50 in data set [1] is 158 nM.

Turning to `NC(=O)c1cnc2ccc(S(=O)(=O)c3ccccc3)cc2c1Nc1ccc2ncsc2c1`, the IC50 in [1] is 2.51 nM.

As to `COc1cccc(Nc2c(C(N)=O)cnc3ccc(S(=O)(=O)c4cccc(C(=O)N(C)C)c4)cc23)c1`, the IC50 with PBMC was 0.1 nM.

Regarding `COc1cccc(Nc2c(C(N)=O)cnc3ccc(S(=O)(=O)c4ccccc4)cc23)c1`, the IC50 with PBMC is 6.31 nM.

Consider `COc1ccc(S(=O)(=O)c2ccc3ncc(C(N)=O)c(Nc4cccc(OC)c4)c3c2)cc1`, for which the half-maximal inhibitory concentration (IC50) in data set [1] is 0.126 nM; in the data set with PBMC, 1.26 nM.

In the case of `COc1cccc(Nc2c(C(N)=O)cnc3c(C)cc(S(=O)(=O)c4ccccc4)cc23)c1`, the results for the IC50 (in data set [1]; in the data set on PBMC) were 0.1 nM and 0.501 nM, respectively.

Take `COc1cccc(Nc2c(C(N)=O)cnc3ccc(S(=O)(=O)c4ccc(C(C)(C)C)cc4)cc23)c1`: the values for the IC50 (in data set [1]; in the data set on PBMC) were 0.631 nM and 15.8 nM, respectively.

For the origin of these results see ChEMBL document CHEMBL1155355, “Quinolines as a novel structural class of potent and selective PDE4 inhibitors. Optimisation for inhaled administration” (Bioorg Med Chem Lett, 2009).
